Measurements as given in US6987114B1, “Antiviral pyrimidinedione derivatives and process for the preparation thereof” (Samjin Pharmaceutical Co., Ltd, priority 1999, dated 2006).
In brackets after ≈: the same amount, converted by molar mass. Where two headings read alike, the source gives them in different places.

Columns and labels:
[1] = test system: HIV; assay: microbe, parasite or virus in culture; format: cell-based
Procedure, shortened: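 MT-4 cells (2.5×10^5 cells/ml) infected with 1000 CCID50 HIV, added at once to compound dilutions, incubated 4 or 5 days at 37° C. Protection from virus-induced cytopathic effect read by MTT; cytotoxicity from MTT viability of mock-infected cells in parallel.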

[2] = test system: mock-infected MT-4 cells; assay: Cytotoxicity based on viability of mock-infected host cells (MTT method); format: cell-based; details: mock-infected MT-4 cells, MTT method, 4 or 5 days at 37° C.
Procedure, shortened: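 Mock-infected MT-4 cells at 2.5×10^5 cells/ml were exposed to various concentrations of test compound, run in parallel with HIV-infected (1000 CCID50) cultures. After 4 or 5 days at 37° C., host-cell viability was read by MTT.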

[3] = Human immunodeficiency virus 1, MT4, read-out: ED50
[4] = Human immunodeficiency virus 1, MT4, HIV-infected MT-4 cells, MTT method, 4 or 5 days at 37° C., read-out: ED50 (the source's name)

| melting point | EC50 [1, 4] | Structure (SMILES) | EC50 [1, 3] | CD50 [2] |
| --- | --- | --- | --- | --- |
| 130 to 131 °C | 0.003 µg/mL (≈ 0.00757 µM) | CCc1c(Sc2cc(C)cc(C)c2)n(Cc2cccc(OC)c2)c(=O)[nH]c1=O [Example 25, 1-(3-Methoxybenzyl)-5-ethyl-6-(3,5-dimethylphenyl)thio-2,4-pyrimidinedione] |  | 9.04 µg/mL |
| 156 to 158 °C | 0.017 µg/mL (≈ 0.0336 µM) | Cc1cc(C)cc(C(=O)c2c(C(C)C)c(=O)[nH]c(=O)n2Cc2ccc3c(c2)C(=O)c2ccccc2C3=O)c1 [Example 108, 1-(Anthraquinon-2-ylmethyl)-5-isopropyl-6-(3,5-dimethylbenzoyl)-2,4-pyrimidinedione] |  | 14.41 µg/mL |
| 218 to 220 °C | 0.015 µg/mL (≈ 0.0329 µM) | Cc1cc(C)cc(C(=O)c2c(C(C)C)c(=O)[nH]c(=O)n2Cc2cccc(Br)n2)c1 [Example 130, 1-(2-Bromopyridin-6-ylmethyl)-5-isopropyl-6-(3,5-dimethyl-benzoyl)-2,4-pyrimidinedione] |  | 8.85 µg/mL |
| 223 to 225 °C | 0.082 µg/mL (≈ 0.205 µM) | Cc1cc(C)cc(Oc2c(C(C)C)c(=O)[nH]c(=O)n2Cc2cccc(Cl)n2)c1 [Example 124, 1-(2-Chloropyridin-6-ylmethyl)-5-isopropyl-6-(3,5-dimethylphenoxy)-2,4-pyrimidinedione] |  | >100.00 µg/mL |
| 220 to 222 °C | 0.06 µg/mL (≈ 0.149 µM) | CCc1c(Oc2cc(C)cc(C)c2)n(Cc2ccc3ccccc3n2)c(=O)[nH]c1=O [Example 133, 1-(Quinolin-2-ylmethyl)-5-ethyl-6-(3,5-dimethyl-phenoxy)-2,4-pyrimidinedione] |  | 11.70 µg/mL |
| 124 to 126 °C | 0.017 µg/mL (≈ 0.0366 µM) | Cc1cc(C)cc(Sc2c(C(C)C)c(=O)[nH]c(=O)n2Cc2ccc(OC(F)(F)F)cc2)c1 [Example 32, 1-(4-Trifluoromethoxybenzyl)-5-isopropyl-6-(3,5-dimethylphenyl)thio-2,4-pyrimidinedione] |  | 8.99 µg/mL |
| 185 to 187 °C | 0.003 µg/mL (≈ 0.00764 µM) | CCc1c(C(=O)c2cc(C)cc(C)c2)n(Cc2cccc(OC)c2)c(=O)[nH]c1=O [Example 29, 1-(3-Methoxybenzyl)-5-ethyl-6-(3,5-dimethylbenzoyl)-2,4-pyrimidinedione] |  | 7.22 µg/mL |

| Structure (SMILES) | melting point | EC50 [1, 4] | EC50 [1, 3] | CD50 [2] |
| --- | --- | --- | --- | --- |
| CCc1c(Sc2cc(C)cc(C)c2)n(Cc2cccnc2)c(=O)[nH]c1=O [Example 115, 1-(Pyridin-3-ylmethyl)-5-ethyl-6-(3,5-dimethylphenyl)thio-2,4-pyrimidinedione] | 202 to 205 °C |  | 0.014 µg/mL (≈ 0.0381 µM) | 16.63 µg/mL |
| Cc1cc(C)cc(Oc2c(C(C)C)c(=O)[nH]c(=O)n2Cc2nc3ccccc3o2)c1 [Example 148, 1-(Benzoxazol-2-ylmethyl)-5-isopropyl-6-(3,5-dimethylphenoxy)-2,4-pyrimidinedione] | 200 to 202 °C |  | 0.01 µg/mL (≈ 0.0247 µM) | 9.00 µg/mL |
| CCc1c(C(=O)c2cc(C)cc(C)c2)n(CC(C)=O)c(=O)[nH]c1=O [Example 159, 1-(Acetonyl)-5-ethyl-6-(3,5-dimethylbenzoyl)-2,4-pyrimidinedione] | 186 to 189 °C |  | 0.0018 µg/mL (≈ 0.00548 µM) | 11.8 µg/mL |
| CCc1c(C(=O)c2cc(C)cc(C)c2)n(Cc2cc(C)cc(C)c2)c(=O)[nH]c1=O [Example 53, 1-(3,5-Dimethylbenzyl)-5-ethyl-6-(3,5-dimethylbenzoyl)-2,4-pyrimidinedione] | 188 to 190 °C |  | 0.014 µg/mL (≈ 0.0359 µM) | 2.50 µg/mL |
| CCc1c(Oc2cc(C)cc(C)c2)n(Cc2c3ccccc3cc3ccccc23)c(=O)[nH]c1=O [Example 99, 1-(Anthracen-9-ylmethyl)-5-ethyl-6-(3,5-dimethyl-phenoxy)-2,4-pyrimidinedione] | 243 to 245 °C |  | > 4.12 µg/mL | 4.12 µg/mL |
